Test: In vitro release rate evaluation: evaporative weight loss of butylate from microcapsules under vacuum (Cahn RH electrobalance)
Type: physicochemical
Details: 40° C.
Method: This composition was tested in vitro for release rate in the presence of acid as follows: 5.0 grams of formulation were diluted with 25.0 grams of water. Two 1.5 gram aliquots were removed, vacuum filtered onto 0.22 μm filter paper, and placed in a jar (to reduce volatilization of butylate) until the release rate measurement was performed. The remainder of the solution was treated with a concentrated solution of p-toluenesulfonic acid to pH 2.02. The acid treated solution was rolled for 10 minutes after which several 1.5 gram aliquots of the acid treated solution were removed, vacuum filtered onto 0.22 μm filter paper, and placed in a jar (to reduce volatilization butylate) until the release rate measurement was performed.
Release rate studies were conducted employing a Cahn RH electrobalance to monitor the rate of evaporative weight loss of butylate (a model compound with a high vapor pressure) from microcapsules under vacuum. The sample (on the filter paper) was placed on the sample pan of the electrobalance and allowed to equilibrate at 40° C. for 10-15 minutes in the sealed system prior to placing under vacuum. The weight loss, measured with the electrobalance enclosed under vacuum, was recorded on a chart recorder.

## CCSC(=O)N(CC(C)C)CC(C)C [butylate, S-ethyl diisobutyl thiocarbamate]
  release rate of non-encapsulated butylate: The release rate of non-encapsulated butylate was determined to be about 17-19 mg/min.
